For this test, the target named is T1, Enoyl acyl carrier protein (ACP) reductase (InhA) (Mycobacterium tuberculosis, UniProt P9WGR1).
T1 construct: wild type InhA
The test is described as follows: enzyme kinetic assay, NADH oxidation at […] nm with trans-2-dodecenoyl-CoA substrate. The class given is biochemical.

We go through one compound from article PMC6680637, “In Silico Repositioning of Cannabigerol as a Novel Inhibitor of the Enoyl Acyl Carrier Protein (ACP) Reductase (InhA)” (Molecules, 2019).

T1 sequence (P9WGR1 whole entry, looked up): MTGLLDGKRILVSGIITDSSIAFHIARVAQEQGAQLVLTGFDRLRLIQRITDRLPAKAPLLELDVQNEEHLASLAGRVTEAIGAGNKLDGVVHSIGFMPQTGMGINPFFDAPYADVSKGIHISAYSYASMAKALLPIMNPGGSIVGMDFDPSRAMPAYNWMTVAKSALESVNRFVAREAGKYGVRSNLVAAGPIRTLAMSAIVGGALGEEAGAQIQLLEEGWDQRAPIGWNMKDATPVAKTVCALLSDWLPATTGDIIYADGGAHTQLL

In the case of `CCCCCc1cc(O)c(C/C=C(\C)CCC=C(C)C)c(O)c1` [CBG, Cannabigerol], the IC50 turned out to be 5.2 ± 0.1 µM.

One may read the IC50 as the midpoint of a concentration-inhibition curve.
